Assay results as given in ChEMBL document CHEMBL2331549, “Cyclopropyl- and methyl-containing inhibitors of neuronal nitric oxide synthase” (Bioorg Med Chem, 2013).

How the values were obtained:
Nitric oxide synthase 1 = Nitric oxide synthase 1 (Rattus norvegicus, UniProt P29476); experiment: Inhibition of rat nNOS expressed in Escherichia coli using L-arginine as substrate assessed as formation of nitric oxide by hemoglobin capture assay
[1] = Selectivity ratio of Ki for rat nNOS to Ki for bovine eNOS
[2] = biological target: T1, Nitric oxide synthase, inducible (Mus musculus, UniProt P29477); experiment: Inhibition of mouse iNOS expressed in Escherichia coli using L-arginine as substrate assessed as formation of nitric oxide by hemoglobin capture assay
T1 sequence (P29477 whole entry): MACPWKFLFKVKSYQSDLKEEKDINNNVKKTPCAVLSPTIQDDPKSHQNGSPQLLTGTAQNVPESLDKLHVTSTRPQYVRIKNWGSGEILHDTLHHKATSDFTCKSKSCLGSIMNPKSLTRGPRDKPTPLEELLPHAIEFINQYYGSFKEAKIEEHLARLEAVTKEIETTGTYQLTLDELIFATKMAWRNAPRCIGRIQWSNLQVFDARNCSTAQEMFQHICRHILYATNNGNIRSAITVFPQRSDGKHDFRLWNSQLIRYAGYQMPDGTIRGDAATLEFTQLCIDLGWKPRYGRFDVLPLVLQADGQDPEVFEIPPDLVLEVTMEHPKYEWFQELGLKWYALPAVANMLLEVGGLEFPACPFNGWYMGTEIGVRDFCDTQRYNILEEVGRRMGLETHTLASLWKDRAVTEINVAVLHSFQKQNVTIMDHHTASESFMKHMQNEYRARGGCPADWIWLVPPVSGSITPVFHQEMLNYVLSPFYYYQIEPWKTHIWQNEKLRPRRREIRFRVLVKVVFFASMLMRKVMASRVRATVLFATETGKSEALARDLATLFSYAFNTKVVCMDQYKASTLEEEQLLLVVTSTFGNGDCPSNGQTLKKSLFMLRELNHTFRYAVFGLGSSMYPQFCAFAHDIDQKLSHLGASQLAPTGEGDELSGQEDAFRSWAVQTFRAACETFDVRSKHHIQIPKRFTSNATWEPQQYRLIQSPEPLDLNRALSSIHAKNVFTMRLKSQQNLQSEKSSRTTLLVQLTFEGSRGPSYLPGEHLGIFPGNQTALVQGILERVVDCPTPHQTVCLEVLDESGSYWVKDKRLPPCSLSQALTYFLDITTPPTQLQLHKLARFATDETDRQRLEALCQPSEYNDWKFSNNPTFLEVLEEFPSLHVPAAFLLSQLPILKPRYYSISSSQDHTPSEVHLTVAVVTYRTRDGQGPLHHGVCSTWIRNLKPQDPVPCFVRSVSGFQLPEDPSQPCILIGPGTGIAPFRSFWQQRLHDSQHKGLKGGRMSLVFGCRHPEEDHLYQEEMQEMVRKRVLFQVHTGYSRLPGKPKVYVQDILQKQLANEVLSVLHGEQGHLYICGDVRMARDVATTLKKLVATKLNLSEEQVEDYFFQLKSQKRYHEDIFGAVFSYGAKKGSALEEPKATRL

[3] = Selectivity ratio of Ki for rat nNOS to Ki for mouse iNOS
Nitric oxide synthase 3 = biological target: T2, Nitric oxide synthase 3 (Bos taurus, UniProt P29473); experiment: Inhibition of bovine eNOS expressed in Escherichia coli using L-arginine as substrate assessed as formation of nitric oxide by hemoglobin capture assay
T2 sequence (P29473 whole entry): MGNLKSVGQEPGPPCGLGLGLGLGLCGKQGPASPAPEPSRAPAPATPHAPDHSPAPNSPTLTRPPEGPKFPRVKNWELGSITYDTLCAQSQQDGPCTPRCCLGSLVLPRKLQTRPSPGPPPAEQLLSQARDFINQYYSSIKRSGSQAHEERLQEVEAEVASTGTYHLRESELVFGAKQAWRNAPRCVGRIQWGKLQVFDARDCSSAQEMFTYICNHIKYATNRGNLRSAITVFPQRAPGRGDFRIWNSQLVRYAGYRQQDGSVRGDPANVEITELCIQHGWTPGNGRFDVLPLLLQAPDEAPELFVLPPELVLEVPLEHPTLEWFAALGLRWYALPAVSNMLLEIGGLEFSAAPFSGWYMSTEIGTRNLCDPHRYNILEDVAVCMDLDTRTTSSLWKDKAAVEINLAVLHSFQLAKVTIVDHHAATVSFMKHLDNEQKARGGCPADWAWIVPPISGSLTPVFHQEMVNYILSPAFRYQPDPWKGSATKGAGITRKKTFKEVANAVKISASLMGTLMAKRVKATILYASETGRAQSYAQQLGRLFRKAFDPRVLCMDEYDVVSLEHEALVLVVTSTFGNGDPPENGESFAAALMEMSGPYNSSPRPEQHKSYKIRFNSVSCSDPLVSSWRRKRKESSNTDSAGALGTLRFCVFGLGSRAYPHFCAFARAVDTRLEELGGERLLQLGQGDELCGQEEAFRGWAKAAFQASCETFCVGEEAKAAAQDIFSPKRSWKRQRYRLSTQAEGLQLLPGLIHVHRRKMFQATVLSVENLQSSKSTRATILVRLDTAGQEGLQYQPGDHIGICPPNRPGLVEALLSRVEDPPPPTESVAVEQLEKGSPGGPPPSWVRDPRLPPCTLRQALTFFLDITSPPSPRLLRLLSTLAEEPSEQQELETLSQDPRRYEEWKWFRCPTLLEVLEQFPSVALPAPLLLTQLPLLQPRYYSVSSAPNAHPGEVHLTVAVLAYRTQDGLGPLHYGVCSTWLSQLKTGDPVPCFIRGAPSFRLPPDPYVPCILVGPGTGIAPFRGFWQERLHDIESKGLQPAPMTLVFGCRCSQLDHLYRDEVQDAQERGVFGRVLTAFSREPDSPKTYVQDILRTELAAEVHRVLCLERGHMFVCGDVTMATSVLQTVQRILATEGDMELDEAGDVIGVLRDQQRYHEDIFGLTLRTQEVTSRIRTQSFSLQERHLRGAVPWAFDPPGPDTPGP

Sequence of Nitric oxide synthase 1 (P29476 whole entry): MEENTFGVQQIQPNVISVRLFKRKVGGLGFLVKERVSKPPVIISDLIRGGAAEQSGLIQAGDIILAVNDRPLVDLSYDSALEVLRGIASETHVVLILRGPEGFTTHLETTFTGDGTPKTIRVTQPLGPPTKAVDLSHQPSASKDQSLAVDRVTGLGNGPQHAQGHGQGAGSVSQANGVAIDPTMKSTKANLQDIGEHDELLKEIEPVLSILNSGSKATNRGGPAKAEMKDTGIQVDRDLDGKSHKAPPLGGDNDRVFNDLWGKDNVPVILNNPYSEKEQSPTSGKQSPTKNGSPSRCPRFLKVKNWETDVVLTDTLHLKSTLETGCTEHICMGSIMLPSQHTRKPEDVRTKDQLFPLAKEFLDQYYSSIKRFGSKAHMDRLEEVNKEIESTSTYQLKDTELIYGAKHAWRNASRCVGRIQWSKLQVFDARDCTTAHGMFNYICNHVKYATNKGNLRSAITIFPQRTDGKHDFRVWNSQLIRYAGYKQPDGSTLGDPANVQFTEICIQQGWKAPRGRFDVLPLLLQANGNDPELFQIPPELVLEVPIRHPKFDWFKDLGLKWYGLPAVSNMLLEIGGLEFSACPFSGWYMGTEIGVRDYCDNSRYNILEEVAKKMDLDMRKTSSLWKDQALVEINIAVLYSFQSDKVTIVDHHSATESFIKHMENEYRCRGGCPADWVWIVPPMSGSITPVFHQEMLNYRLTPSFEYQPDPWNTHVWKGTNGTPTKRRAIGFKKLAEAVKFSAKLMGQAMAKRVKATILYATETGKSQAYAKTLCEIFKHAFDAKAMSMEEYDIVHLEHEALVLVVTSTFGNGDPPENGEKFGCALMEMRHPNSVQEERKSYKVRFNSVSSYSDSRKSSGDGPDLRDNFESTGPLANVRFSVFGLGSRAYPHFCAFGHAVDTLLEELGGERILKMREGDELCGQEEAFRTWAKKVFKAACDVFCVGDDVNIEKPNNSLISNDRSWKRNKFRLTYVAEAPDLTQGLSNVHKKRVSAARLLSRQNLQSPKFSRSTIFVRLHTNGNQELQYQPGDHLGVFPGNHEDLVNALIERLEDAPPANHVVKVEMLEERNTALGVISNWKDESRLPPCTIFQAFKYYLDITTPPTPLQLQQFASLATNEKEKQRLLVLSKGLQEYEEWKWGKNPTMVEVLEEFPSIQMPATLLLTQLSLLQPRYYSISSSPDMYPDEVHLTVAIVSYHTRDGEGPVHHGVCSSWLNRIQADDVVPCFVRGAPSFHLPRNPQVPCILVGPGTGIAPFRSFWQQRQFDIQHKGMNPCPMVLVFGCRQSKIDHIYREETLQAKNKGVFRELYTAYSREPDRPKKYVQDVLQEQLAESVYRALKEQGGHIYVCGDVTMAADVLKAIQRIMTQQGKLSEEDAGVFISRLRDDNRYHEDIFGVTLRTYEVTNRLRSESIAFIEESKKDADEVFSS

Row | SMILES | Ki (Nitric oxide synthase 1) [µM] | Ratio Ki [1] | Ki [2] [µM] | Ratio Ki [3] | Ki (Nitric oxide synthase 3) [µM]
1 | Cc1cc(N)nc(C[C@@H]2CNC[C@@H]2OCCN[C@H](C)Cc2cccc(F)c2)c1 | 0.07 | 570 | 7.6 | 110 | 40
2 | Cc1cc(N)nc(C[C@@H]2CNC[C@@H]2OCCNC2CC2c2cccc(Cl)c2)c1 (mixture of isomers) | – | 370 | – | 12 | –
3 | Cc1cc(N)nc(C[C@@H]2CNC[C@@H]2OCCNC2CC2c2cccc(F)c2)c1 (mixture of isomers) | 0.17 | 300 | 16 | 94 | 51
4 | Cc1cc(N)nc(C[C@@H]2CNC[C@@H]2OCCNC(C)Cc2cccc(F)c2)c1 (mixture of isomers) | – | 370 | – | 12 | –
